The values that follow come from PubChem BioAssay AID330 (DTP/NCI, 2004).

The structures appear in SMILES notation. Values joined by “and” are separate entries in the source; they are usually repeats but may differ in a detail not shown here. Equal values may be shown once. Inconclusive results and toxic doses are left out.

The test system of the test is P388 leukemia ip, CD2F1 mice, survival T/C. The test can be described thus: NCI In Vivo Anticancer Drug Screen. Data for tumor model P388 Leukemia (intraperitoneal) in CD2F1 (CDF1) mice. The conditions noted are these: endpoint: median survival time, higher = longer survival. The procedure, abridged: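 Mice carrying the transplanted tumor received test compound or vehicle. Survival was recorded in each group, and the value is the treated-group measurement divided by that of the vehicle-treated control group.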

Where [1] appears, read: dose: 50.0 mg/kg/injection, schedule: Q01DX009 (ip), vehicle: saline.
The mark [2] stands for this setting: dose: 100.0 mg/kg/injection, schedule: Q01DX009 (ip), vehicle: saline.
[3] abbreviates: dose: 200.0 mg/kg/injection, schedule: Q01DX009 (ip), vehicle: saline.
The mark [4] stands for this setting: dose: 12.5 mg/kg/injection, schedule: Q01DX009 (ip), vehicle: saline with Tween-80.
Where [5] appears, read: dose: 25.0 mg/kg/injection, schedule: Q01DX009 (ip), vehicle: saline with Tween-80.
[6] abbreviates: dose: 50.0 mg/kg/injection, schedule: Q01DX009 (ip), vehicle: saline with Tween-80.
The mark [7] stands for this setting: dose: 25.0 mg/kg/injection, schedule: Q01DX005 (ip), vehicle: saline with Tween-80.
[8] abbreviates: dose: 50.0 mg/kg/injection, schedule: Q01DX005 (ip), vehicle: saline with Tween-80.
The mark [9] stands for this setting: dose: 50.0 mg/kg/injection, schedule: Q01DX009 (ip), vehicle: Klucel (hydroxypropylcellulose) (HPC).
[10] abbreviates: dose: 100.0 mg/kg/injection, schedule: Q01DX009 (ip), vehicle: Klucel (hydroxypropylcellulose) (HPC).
Setting [11] is: dose: 200.0 mg/kg/injection, schedule: Q01DX009 (ip), vehicle: Klucel (hydroxypropylcellulose) (HPC).
[12] abbreviates: dose: 60.0 mg/kg/injection, schedule: Q01DX005 (ip), vehicle: saline with Tween-80.
[13] abbreviates: dose: 120.0 mg/kg/injection, schedule: Q01DX005 (ip), vehicle: saline with Tween-80.
[14] abbreviates: dose: 25.0 mg/kg/injection, schedule: Q01DX009 (ip), vehicle: water.
Setting [15] is: dose: 50.0 mg/kg/injection, schedule: Q01DX009 (ip), vehicle: water.

With `CCCCCC1OC1CC1OC1CCCCCCCC(=O)O` (stereo unspecified), the T/C was 99 % of control under setting [1], 90 % of control under setting [2] and 86 % of control under setting [3].
`CNc1ccc([N+](=O)[O-])cc1C(=O)OC`: the T/C by setting is: under setting [4], 99 % of control; under setting [5], 98 % of control; under setting [6], 102 % of control.
As for `COC1=CC(=O)C(c2cc(O)c(OC)cc2O)=CC1=O`, the T/C (dose: 12.0 mg/kg/injection, schedule: Q01DX005 (ip), vehicle: saline with Tween-80) was 114 % of control; the T/C under setting [7] is 108 % of control; the T/C under setting [8] is 99 % of control.
As for `O=[N+]([O-])c1ccccc1N=NNc1ccccc1`, the T/C under setting [9] is 95 % of control, the T/C under setting [10] is 91 % of control and the T/C under setting [11] is 104 % of control.
Turning to `N#CN=CN1CC2CCC(CC2)C1`, the T/C is 98 % of control (dose: 3.13 mg/kg/injection, schedule: Q01DX009 (ip), vehicle: saline); 102 % of control (dose: 6.25 mg/kg/injection, schedule: Q01DX009 (ip), vehicle: saline); 92 % of control (dose: 12.5 mg/kg/injection, schedule: Q01DX009 (ip), vehicle: saline).
On to `Cn1c(=O)n(-c2ccccc2)c(=O)c2ccccc21`, for which the T/C by setting is: under setting [10], 100 % of control; under setting [11], 110 % of control; (dose: 400.0 mg/kg/injection, schedule: Q01DX009 (ip), vehicle: Klucel (hydroxypropylcellulose) (HPC)) 109 % of control.
Regarding `C/C(=N\NC(=S)N1CCCCCC1)c1nccs1`, the T/C was 98 % of control (dose: 12.5 mg/kg/injection, schedule: Q01DX005 (ip), vehicle: saline with Tween-80); 100 % of control under setting [7]; 102 % of control under setting [8].
On to `COC(=O)C(=O)c1c(C(=O)OC)nc2[nH]n(-c3ccccc3)c(=O)c2c1-c1cccc2ccccc12`, for which the T/C was 100 % of control and 110 % of control (dose: 30.0 mg/kg/injection, schedule: Q01DX005 (ip), vehicle: saline with Tween-80); 98 % of control and 100 % of control under setting [12]; 91 % of control and 94 % of control under setting [13].
Turning to `COc1cc(C(c2c(O)c3ccccc3oc2=O)c2c(O)c3ccccc3oc2=O)cc(OC)c1O`, the T/C was 99 % of control under setting [12] and 111 % of control under setting [13].
Consider `NC(=S)N1CC=CCC1`, for which the T/C reads like this: under setting [9], 99 % of control; under setting [10], 101 % of control; under setting [11], 101 % of control.
Turning to `O=C(OCc1ccccc1)C(Cc1ccccc1)NC(=O)C(Cc1ccc(O)cc1)N(C(=O)OCc1ccccc1)C(=O)OCc1ccccc1` (stereo unspecified), the T/C is 103 % of control under setting [8]; 100 % of control (dose: 100.0 mg/kg/injection, schedule: Q01DX005 (ip), vehicle: saline with Tween-80); 91 % of control (dose: 200.0 mg/kg/injection, schedule: Q01DX005 (ip), vehicle: saline with Tween-80).
For the compound `COC(=O)C#CCO`, the T/C is 103 % of control (dose: 6.25 mg/kg/injection, schedule: Q01DX009 (ip), vehicle: water); 112 % of control and 94 % of control (dose: 12.5 mg/kg/injection, schedule: Q01DX009 (ip), vehicle: water); 112 % of control and 120 % of control under setting [14]; 112 % of control and 122 % of control under setting [15].
With `CNC(=O)OCc1nn(-c2ccccc2)c(C)c1COC(=O)NC`, the T/C is 97 % of control (dose: 12.5 mg/kg/injection, schedule: Q01DX009 (ip), vehicle: distilled water + Tween-80); 97 % of control (dose: 25.0 mg/kg/injection, schedule: Q01DX009 (ip), vehicle: distilled water + Tween-80); 97 % of control (dose: 50.0 mg/kg/injection, schedule: Q01DX009 (ip), vehicle: distilled water + Tween-80); 92 % of control (dose: 100.0 mg/kg/injection, schedule: Q01DX009 (ip), vehicle: distilled water + Tween-80); 92 % of control (dose: 200.0 mg/kg/injection, schedule: Q01DX009 (ip), vehicle: distilled water + Tween-80).
As for `COc1cc(C=Nc2c[nH]c(=O)[nH]c2=O)ccc1O`, the T/C reads like this: under setting [1], 93 % of control; under setting [2], 96 % of control; under setting [3], 98 % of control.
In the case of `CCOC(=O)c1[nH]cnc1/N=N/c1nc(O)c(C#N)[nH]1`, the T/C reads like this: (dose: 60.0 mg/kg/injection, schedule: Q01DX005 (ip), vehicle: suspension in saline) 97 % of control; (dose: 120.0 mg/kg/injection, schedule: Q01DX005 (ip), vehicle: suspension in saline) 100 % of control; (dose: 240.0 mg/kg/injection, schedule: Q01DX005 (ip), vehicle: suspension in saline) 100 % of control.
`N#CC1CSCC1=O` (stereo unspecified): the T/C is 103 % of control under setting [5]; 100 % of control under setting [6]; 99 % of control (dose: 100.0 mg/kg/injection, schedule: Q01DX009 (ip), vehicle: saline with Tween-80).
On to `Oc1ccccc1C1NCCc2[nH]cnc21` (stereo unspecified), for which the T/C is 104 % of control (dose: 50.0 mg/kg/injection, schedule: Q01DX005 (ip), vehicle: Klucel (hydroxypropylcellulose) (HPC)); 102 % of control (dose: 100.0 mg/kg/injection, schedule: Q01DX005 (ip), vehicle: Klucel (hydroxypropylcellulose) (HPC)); 104 % of control (dose: 200.0 mg/kg/injection, schedule: Q01DX005 (ip), vehicle: Klucel (hydroxypropylcellulose) (HPC)).
Take `CC(N)C(=O)OCN1C(=O)C2C3C=CC(C2C1=O)C1C(=O)N(COC(=O)C(C)N)C(=O)C31` (stereo unspecified): the T/C under setting [14] was 100 % of control; the T/C under setting [15] is 100 % of control; the T/C (dose: 100.0 mg/kg/injection, schedule: Q01DX009 (ip), vehicle: water) was 112 % of control; the T/C (dose: 200.0 mg/kg/injection, schedule: Q01DX009 (ip), vehicle: water) was 121 % of control.
On to `S=C(Nc1ccc(Br)cc1)SCc1ccc(Cl)cc1`, for which the T/C (dose: 50.0 mg/kg/injection, schedule: Q01DX009 (ip), vehicle: suspension in saline) was 97 % of control; the T/C (dose: 100.0 mg/kg/injection, schedule: Q01DX009 (ip), vehicle: suspension in saline) was 105 % of control; the T/C (dose: 200.0 mg/kg/injection, schedule: Q01DX009 (ip), vehicle: suspension in saline) was 119 % of control.
Consider `CC(=O)O[C@@H]1C(=O)C=C(C)[C@@H]2[C@@H](OC(=O)C=C(C)C)[C@H]3OC(=O)C[C@H]4[C@@H](C)[C@@H](O)[C@]5(O)OC[C@]34[C@H]5[C@@]12C`, for which the T/C (dose: 0.5 mg/kg/injection, schedule: Q01DX009 (ip), vehicle: distilled water + Tween-80) was 118 % of control; the T/C (dose: 1.0 mg/kg/injection, schedule: Q01DX009 (ip), vehicle: distilled water + Tween-80) was 121 % of control; the T/C (dose: 10.0 mg/kg/injection, schedule: Q01DX009 (ip), vehicle: distilled water + Tween-80) was 177 % of control.
On to `CC(O)C(NC(=O)c1cnc(OCc2ccccc2)nc1N)C(=O)O` (stereo unspecified), for which the T/C (dose: 6.25 mg/kg/injection, schedule: Q01DX009 (ip), vehicle: saline with Tween-80) is 100 % of control; the T/C under setting [4] is 100 % of control; the T/C under setting [5] was 90 % of control.
